{"source": "patent US8834942B2", "about": "“Enhanced absorption of oregano derived oils” (priority 2010, dated 2014)", "origin": "cited, not measured here", "conditions": "single emulsifier"}
{"substance": "polyoxyethylene sorbitan monooleate", "values": [{"measurement": "HLB value", "value": "about 15"}]}
